Results on one molecule are retold here after patent US20260215887A1, “COATING COMPOSITION FOR THE TREATMENT OR PREVENTION OF PERIIMPLANTITIS AND PREPARATION METHOD THEREOF” (UNIVERSITAT JAUME I, priority 2023, published 2026).

For assay [1], the system named is Streptococcus Gordonii (CECT 804). As to the kind of experiment: Proliferation and bacterial count on inoculated grade-IV titanium disks. Type of assay: cell-based. The text has this: The mechanism of action of the composition of Example 1 was further investigated by studying in parallel assays the proliferation of bacterial population of Streptococcus Gordonii on grade-IV titanium plates which are either uncoated or coated with M1 (free of octenidine) or M3 (2% in weight of octenidine) or with a solution of octenidine having an equivalent amount of octenidine as the composition M3. The following experimental procedure was used.
All materials used were sterile or have been previously sterilized by autoclaving. The assays were performed inside a level 2 biosafety cabinet. Three different grade IV-Ti disks were used to perform the assay. This procedure was carried out for each of the assays: First, a suspension of Streptococcus Gordonii (CECT 804) of known concentration was prepared. For this purpose, a test tube is prepared with 10 mL of d.d. H2O to which bacteria were added until the desired concentration (Concentration=1×10^6 CFU/mL). […] 500 μL of bacterial suspension of known concentration (1×10^6 CFU/mL) was then added in wells of a sterile 24-well plate. Subsequently, the grade-IV Ti disc was immersed in the bacterial suspension for 1 minute (1 disk per well) in order to inoculate the disc. […]
Once this time was elapsed, bacteria population was counted. […]

The test system of a further assay is Staphylococcus aureus. The settings on record: known in the art; cited from earlier work.

Where only a bound is given, the exact number is not on record here.

Take `CCCCCCCCN=c1ccn(CCCCCCCCCCn2ccc(=NCCCCCCCC)cc2)cc1` [octenidine]: the “proliferation of bacteria population on coated disks” value in assay [1] (after 24 hours incubation at 37° C., FIG. 22) is listed as “significant reduction of bacteria proliferation”. In addition, the “bacterial count of bacteria adhered to the titanium surface” value in assay [1] (average of three samples per disk, 24 h at 37° C., uncoated disk 1,726 × 10^7) is 483,33 CFU/mL. Further, in the assay on Staphylococcus aureus, the “minimal bactericide concentration (MBC)” value is less than 2 mg/L and the “minimal inhibitory concentration (MIC)” value is less than 2 mg/L.
